According to the NIST ThermoML archive (doi:10.1016/j.tca.2017.07.001):
“And” between values parts separate entries of the source, which are not always exact repeats. Identical values can stand only once. Numbers after ± are expanded uncertainties.

Details: Liquid, Transpiration method

## CC(C)(C)[N+](=O)[O-] [2-methyl-2-nitropropane]
299.3 K
  vapor or sublimation pressure: 2.054 ± 0.13 kPa
303.2 K
  vapor or sublimation pressure: 2.553 ± 0.16 kPa
304.2 K
  vapor or sublimation pressure: 2.705 ± 0.17 kPa
308.2 K
  vapor or sublimation pressure: 3.261 ± 0.2 kPa
309.2 K
  vapor or sublimation pressure: 3.527 ± 0.22 kPa
313.2 K
  vapor or sublimation pressure: 4.205 ± 0.26 kPa
314.2 K
  vapor or sublimation pressure: 4.41 ± 0.27 kPa
318.2 K
  vapor or sublimation pressure: 5.269 ± 0.33 kPa
323.2 K
  vapor or sublimation pressure: 6.65 ± 0.41 kPa
328.1 K
  vapor or sublimation pressure: 8.479 ± 0.53 kPa

## CC(C)[N+](=O)[O-] [2-nitropropane]
274.7 K
  vapor or sublimation pressure: 0.609 ± 0.038 kPa
274.8 K
  vapor or sublimation pressure: 0.604 ± 0.038 kPa and 0.597 ± 0.038 kPa
279.5 K
  vapor or sublimation pressure: 0.799 ± 0.05 kPa
279.6 K
  vapor or sublimation pressure: 0.827 ± 0.052 kPa
284.4 K
  vapor or sublimation pressure: 1.092 ± 0.068 kPa and 1.091 ± 0.068 kPa
289.3 K
  vapor or sublimation pressure: 1.459 ± 0.092 kPa
294.2 K
  vapor or sublimation pressure: 1.953 ± 0.12 kPa
294.3 K
  vapor or sublimation pressure: 1.9 ± 0.12 kPa
299.2 K
  vapor or sublimation pressure: 2.574 ± 0.16 kPa
304.1 K
  vapor or sublimation pressure: 3.344 ± 0.21 kPa
304.2 K
  vapor or sublimation pressure: 3.336 ± 0.21 kPa
309.1 K
  vapor or sublimation pressure: 4.299 ± 0.27 kPa
314.1 K
  vapor or sublimation pressure: 5.612 ± 0.35 kPa and 5.563 ± 0.34 kPa
